Where two headings read alike, the source gives them in different places.
How the values were obtained:
[1] = molecular target: T1, LPAAT-β (Homo sapiens, UniProt O15120); conditions: previously reported inhibitors; cited from earlier work
T1 sequence (O15120 24-278): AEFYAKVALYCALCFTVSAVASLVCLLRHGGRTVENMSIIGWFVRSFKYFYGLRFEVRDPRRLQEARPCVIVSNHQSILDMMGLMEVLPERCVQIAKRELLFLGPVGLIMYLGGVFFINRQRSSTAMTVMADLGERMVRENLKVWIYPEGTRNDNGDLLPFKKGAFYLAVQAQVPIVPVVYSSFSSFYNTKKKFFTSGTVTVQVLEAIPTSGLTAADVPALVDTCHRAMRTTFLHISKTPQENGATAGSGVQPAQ

[2] = body fat percentage measured by MRI in treated mice; type: in vivo; conditions: after 20 days of treatment
Source text: YG9-095-3 can be a useful compound for the treatment of obesity as well as cancer.

[3] = test system: MDAMB-231; test: anchorage-independent growth in agar; type: cell-based, human; conditions: MDAMB-231, 2-4 weeks in agar
Experimental: (§1) FIG. 3. LPAAT-β inhibitors block anchorage-independent growth of cancer cell lines. Human pancreatic (MiaPaCa2 and Panc-1), ovarian (OVCAR-5) and breast cancer (MDAMB-231) cells were plated into 3% agar containing LPAAT-β inhibitors and allowed to grow for 2-4 weeks in the presence of the compounds. […] This effect of the small molecules is similar to the effect of knockdown with LPAAT-β siRNA (nt, non-targeting; LP-1, LPAAT-β).

[4] = test system: Panc-1; test: anchorage-independent growth in agar; type: cell-based, human; conditions: Panc-1, 2-4 weeks in agar
Experimental: as §1

[5] = test system: OVCAR-5; test: anchorage-independent growth in agar; type: cell-based, human; conditions: OVCAR-5, 2-4 weeks in agar
Experimental: as §1

[6] = test system: MiaPaCa2; test: anchorage-independent growth in agar; type: cell-based, human; conditions: MiaPaCa2, 2-4 weeks in agar
Experimental: as §1

[7] = molecular target: T1, LPAAT-β; test: secondary thin layer chromatography (TLC) assay measuring fluorescent PA; type: biochemical; set-up: The assay utilizes full-length, recombinant, baculovirus-produced LPAAT-β; made in house
[8] = test system: MiaPaCa2 human pancreatic cancer cells; test: inhibition of proliferation, Alamar blue, 72 h; type: cell-based; conditions: Homo sapiens, MIA PaCa-2
Experimental: The ability of selected compounds from the libraries 6, 15 and 19 to inhibit the growth of MiaPaCa2 human pancreatic cancer cells was investigated. Human pancreatic carcinoma (MiaPaCa2) cells were plated at a low confluency into 96-well tissue culture-treated plates. After allowing cells to attach and grow overnight at 37 degrees in a 5% CO2 incubator, growth medium was replaced with fresh medium (100 μl/well) containing compounds in a range from 0.1-100 μM. All treatments were made from 500× stock solutions in DMSO, and the control wells received an equivalent amount of DMSO in medium. After 72 hours of growth in the presence of the compounds, Alamar blue was added to the wells according to the manufacturer's instructions (Life Technologies, Grand Island, N.Y.) and cells were incubated in its presence for 2-3 hours. Fluorescence readings were performed using a Biotek Synergy II plate reader with […] wavelengths of 530/590 nm. […] Calculated IC50s are representative of at least three independent experiments.

[9] = test system: Caspase 3 activity in IGROV-1 cells; test: induction of apoptosis, cleavage of fluorescent Caspase 3 substrate; type: cell-based, human; conditions: IGROV-1, 48 hr
Experimental: FIGS. 5A-5B. Induction of apoptosis with 19s treatment in pancreatic and ovarian cancer cell lines. Human pancreatic (MiaPaCa2) and ovarian (IGROV-1) cells were treated for 48 hr with LPAAT-b inhibitors then harvested and the samples assayed for their ability to cleave a fluorescent Caspase 3 specific substrate, Av-DEVD-AMC (A) In addition, the samples were run on SDS-PAGE gels and Western blotted to assess the presence of the activated form of Caspase 3 (inset). MiaPaCa2 cells show 3.5-fold and IGROV-1 cells show 25-fold activation of Caspase 3 activity after treatment with 19s compared to a vehicle-treated control sample. (B) PARP cleavage in MiaPaCa2 cells treated for 72 hr with 10 μM 19s and 19p.

[10] = test system: pancreatic cancer cells; test: combination treatment with regorafenib (FIG. 23); type: cell-based
Source text: This is important for the use of YG9-095-3 in combination with standard therapy for Kras mutant colon cancer.

[11] = molecular target: T1, LPAAT-β; test: DTNB (Ellman's reagent) 96-well plate screening assay of LPAAT-β enzymatic activity; type: biochemical; set-up: The assay utilizes full-length, recombinant, baculovirus-produced LPAAT-β; made in house
Experimental: Screening with a modified screening assay in 96-well plate format for LPAAT-β enzymatic activity was performed as reported by Aguado and Campbell (Aguado et al., Characterization of a human lysophosphatidic acid acyltransferase that is encoded by a gene located in the class III region of the human major histocompatibility complex. J. Biol. Chem. 1998, 273, 4096-105).
The assay utilizes full-length, recombinant, baculovirus-produced LPAAT-β, which catalyzes the production of dioleoyl-[…] from the enzymatic substrates oleoyl-lysophosphatidic acid (LPA) and oleoyl-coenzyme A (Scheme 2). The ability of the compound to inhibit the LPAAT-β activity was assayed by the colorimetric measurement of the reaction of the free thiol group of the released coenzyme A with Ellman's reagent [5,5′-dithiobis-(2-nitrobenzoic acid) or DTNB] (Riener et al., Quick measurement of protein sulfhydryls with Ellman's reagent and with 4,4′-dithiodipyridine. Anal. Bioanal. Chem. 2002, 373, 266-76). […] A hit identified from the Life Chemicals library 6a (IC50 100 nM) was selected for further investigation.

[12] = test system: RalA; test: RalA activation (FIG. 21); type: cell-based
Source text: Therefore this inhibitor can target the RalA effector arm as well as mTOR which few compounds can do.

[13] = test system: mTOR signaling; test: inhibition of mTOR signaling (FIG. 20); type: cell-based
Source text: P-p7056k and p-4EBP1 are decreased by treatment at 3 micromolar or higher.

[14] = test system: Panc-1; test: combination with 5-FU, proliferation by Alamar blue, isobolograms; type: cell-based, human; conditions: Panc-1, 72 hr
Experimental: (§2) FIG. 6. Synergistic effect of YG9-095-3 with 5-FU in IGROV-1 ovarian cancer cells. Human ovarian and pancreatic carcinoma cell lines (IGROV-1 and OVCAR-5; Panc-1) were treated for 72 hr with 19s, 5-FU, and the two drugs in simultaneous combination. […] However, in OVCAR-5 cells, at low concentration there appears to be an additive effect of the two drugs on proliferation, but the effect becomes antagonistic at the higher concentrations of YG9-095-3.

[15] = test system: OVCAR-5 cells; test: as above; type: cell-based, human; conditions: OVCAR-5, 72 hr
Experimental: as §2

[16] = test system: IGROV-1 ovarian cancer cells; test: as above; type: cell-based, human; conditions: IGROV-1, 72 hr, simultaneous combination
Experimental: as §2

[17] = test system: mTOR effector protein phosphorylation in MiaPaCa2 cells; test: mTOR effector protein phosphorylation, Western blotting; type: cell-based; conditions: Homo sapiens
Source text: FIG. 4. Inhibition of mTOR effector protein phosphorylation by LPAAT-β inhibitor.

[18] = test system: total cellular PA levels; test: total cellular PA levels measured by mass spectroscopy in intact cells; type: cell-based
Source text: Inhibition is by more than 50%. Inhibition is greater than that seen with a known DAGK inhibitor. DAGK is an enzyme that can also increase PA levels.

[19] = test system: pancreatic cancer cells; test: cell cycle progression (FIG. 22); type: cell-based

CCOc1ccc(Cl)cc1-c1cc(Nc2ccc(Cl)cc2)nc(N)n1 [Compound 1]
in vitro activity against LPAAT-β enzyme activity, in words [1]: potent in vitro activity

CCOc1ccc(Cl)cc1-c1cc(N)nc(Nc2ccc(Cl)cc2)c1 [Compound 2]
in vitro activity against LPAAT-β enzyme activity, in words [1]: potent in vitro activity

C=CCc1cc(-c2ccc(Cl)c(Cl)c2)cc(C(C)=NNC(N)=S)c1O [Compound 19s]
decrease in body fat percentage compared to vehicle treated controls [2]: 50%
inhibition of anchorage-independent growth [3]: potent inhibition
inhibition of anchorage-independent growth [4]: potent inhibition
inhibition of anchorage-independent growth [5]: potent inhibition
inhibition of anchorage-independent growth [6]: potent inhibition
IC50 [7]: 2.4 ± 0.7 µM
IC50 ([7]; Table 4): 2.4 ± 0.7 µM
IC50 [8]: 6.3 ± 2.9 µM
activation of Caspase 3 activity compared to vehicle-treated control [9]: 25 fold
combination effect with regorafenib [10]: additive to synergistic inhibition
IC50 ([11]; Table 4, read-out: IC50 (μm) (DTNB assay) (converted)): 0.36 ± 0.1 µM
IC50 ([11]; read-out: IC50 (μM) (DTNB assay) (converted)): 0.36 ± 0.1 µM
inhibition of RalA activation [12]: 50%
concentration at which P-p70S6k and p-4EBP1 are decreased [13]: ≥ 3 µM
combination effect with 5-FU on cellular proliferation [14]: mildly additive to antagonistic
combination effect with 5-FU on cellular proliferation ([15]; at low concentration): additive
combination effect with 5-FU on cellular proliferation ([15]; at the higher concentrations of YG9-095-3): antagonistic
combination effect with 5-FU on cellular proliferation [16]: moderately synergistic
inhibition at 10 µM ([17]; MIA PaCa-2, read-out: inhibition of P-4E-BP 1): 76%
inhibition at 10 µM ([17]; MIA PaCa-2, read-out: inhibition of P-AKT): 88%
inhibition at 10 µM ([17]; MIA PaCa-2, read-out: inhibition of P-p70): 43%
cell membrane permeability ([18]; concluded from treatment of intact cells): cell membrane permeable
inhibition (reduction) of total cellular PA levels ([18]; mass spectroscopy, intact cells): more than 50%
effect on cell cycle progression [19]: S-phase arrest and accumulation
rescue of cells from the cell cycle effect by exogenous PA [19]: can be rescued

Source: patent US20170027893A1, “THIOSEMICARBAZONES INHIBITORS OF LYSOPHOSPHATIDIC ACID ACYLTRANSFERASE AND USES THEREOF” (H. LEE CANCER CENTER AND RESEARCH INSTITUTE, INC., priority 2014, published 2017)
